The record followed here is US20240216315A1, “METHODS AND COMPOSITIONS FOR TREATMENT OF DIABETIC RETINOPATHY AND RELATED CONDITIONS” (Ocuphire Pharma, Inc., priority 2021, published 2024).

Series [1] can be described thus: Phase 2 clinical study, safety: treatment-emergent adverse events. It counts as in vivo, human. The source says:
(§1) The study is to be configured as a placebo-controlled, double-masked, randomized, Phase 2 study in approximately 100 subjects with moderately severe to severe NPDR (diabetic retinopathy severity score [DRSS] Level 47 or 53, see FIG. 1) or mild PDR (DRSS Level 61), evaluating safety and efficacy following administration of Compound 1 twice daily for 24 weeks. The study will have a 1:1 randomization (placebo: Compound 1). Randomization will be stratified by level of disease severity (NPDR or PDR). Subjects with mild PDR will be capped at 20% for each arm. Efficacy evaluations at 12 and/or 24 weeks will include DRSS, center-involved diabetic macular edema (DME), moderate PDR or PDR-related adverse events (AEs), best-corrected visual acuity (BCVA), and central subfield thickness (CST). Further experimental procedures and results are described below.
(§2) At the Qualification/Baseline (Visit 2, Day 1): • The subject will be randomized into the study. • Study medication will be dispensed in accordance with the subjects randomized treatment arm. • Blood samples will be drawn pre-dose for baseline levels and on Visit 9 (Week 24) for exploratory biomarker processing (i.e., cytokine and Ref-1 levels) to evaluate pharmacodynamic properties. • Subjects will be instructed to administer their study medication (APX3330 or placebo) cach day, with 3 tablets every morning and 2 tablets every evening. Study medication should be taken at approximately the same time each day and may be taken with or without food.
Telephone safety calls will be conducted for Visit 3 (Week 1±2 Days), Visit 5 (Week 8±2 Days), Visit 7 (Week 16±2 Days), and Visit 8 (Week 20±2 Days). The safety assessment will include review of drug compliance, concomitant medications, AEs, and urine pregnancy test at home (only for women of childbearing potential).
Study subjects will receive study medication as set forth in Table 1 according to the Treatment Group to which the subject is assigned. […]

The nature of series [2]: Phase 2 clinical study, safety: blood chemistry (alanine and aspartate aminotransferase in subjects' blood). In kind it is in vivo, human. The note with it: combined placebo and Compound 1 patients.
Description: as §1, §2
At the Second Treatment Visit (Visit 6, Week 12±2 Days), subjects will return to the site for the following series of safety and efficacy assessments: drug accountability, concomitant medications, urine pregnancy test (only for women of childbearing potential), HR/BP/vital signs, BCVA (ETDRS), DRSS, CST (SD-OCT), blood draw for PK, blood chemistry, blood hematology, biomicroscopy, ophthalmoscopy, IOP, eGFR, and AEs. Following the completion of the assessments, used medication kits will be collected for accountability (by counting the number of unused tablets), and new study medication kits will be dispensed.
At the Third Treatment Visit (Visit 9, Week 24±2 Days), subjects will return to the site for the following series of safety and efficacy assessments: drug accountability, concomitant medications, urine pregnancy test (only for women of childbearing potential), physical examination, HR/BP/vital signs, BCVA (ETDRS), DRSS, CST (SD-OCT), blood chemistry, blood hematology, biomicroscopy, ophthalmoscopy, IOP, cGFR, AEs, and blood draw for exploratory biomarkers (ELISA, cytokine panel, comprehensive metabolic panel). Visit 9 (Week 24) is the end of the treatment period. Study medication will be returned for accountability (by counting the number of unused tablets), and no further study medication will be dispensed.
Study subjects will receive study medication as set forth in Table 1 according to the Treatment Group to which the subject is assigned. Subjects will be instructed to take study medication at approximately the same time each day, and the medication may be taken with or without food. […]

As for `CCCCCCCCC/C(=C\C1=C(C)C(=O)C(OC)=C(OC)C1=O)C(=O)O` [Compound 1, (E)-2-((4,5-dimethoxy-2-methyl-3,6-dioxocyclohexa-1,4-dien-1-yl)methylene)undecanoic acid], in series [1] (Compound 1 administered orally according to the study protocol (600 mg/day)), the “safety profile in the patient population enrolled” value is reported as “good safety profile”. For the same compound, the “total of treatment-emergent adverse events observed” value in series [1] (from the 100 subjects enrolled, combined placebo and Compound 1 patients) was 83. Besides, the “subjects that reported at least one treatment-emergent adverse event” value in series [1] (of 100 subjects enrolled, combined placebo and Compound 1 patients) came out at 41. Besides, in series [2] (week 12, 50 subjects), the “change in mean concentration of alanine aminotransferase in subjects' blood relative to Baseline” value is given as −0.8 IU/L, the “change in mean concentration of aspartate aminotransferase in subjects' blood relative to Baseline” value was −0.5 IU/L, the “reduction in mean concentration of alanine aminotransferase in subjects' blood relative to Baseline” value stood at 3.6% and the “reduction in mean concentration of aspartate aminotransferase in subjects' blood relative to Baseline” value was 3%. Also, in series [2] (week 24, 22 subjects), the “change in mean concentration of alanine aminotransferase in subjects' blood relative to Baseline” value was −2.1 IU/L, the “change in mean concentration of aspartate aminotransferase in subjects' blood relative to Baseline” value was −1.8 IU/L, the “reduction in mean concentration of alanine aminotransferase in subjects' blood relative to Baseline” value is 9.4% and the “reduction in mean concentration of aspartate aminotransferase in subjects' blood relative to Baseline” value amounted to 9%.
